Measured values reported in patent publication US5627270A, “Glycosylated steroid derivatives for transport across biological membranes and process for making and using same” (Trustees of Princeton University, priority 1994, dated 1997).
Entries after “also recorded” stand apart in the source; their conditions may differ. Where two headings read alike, the source gives them in different places.

Experiments:
[1] = tested on: DH2 cells (a mutant strain of E. coli K-12); assay type: cell-based; conditions: for EFFECT (enhancement of erythromycin): compound 20 mM; as to EFFECT (enhancement of erythromycin): key: --: erythromycin alone at 1.0 mM (baseline) and all lesser effects; +: enhancement relative to baseline; +++: significant enhancement relative to baseline
[2] = tested on: Crithidia fasciculate; assay: ASSAY IV: efficacy of antifungal agents on protozoa with and without added glycosylated steroid derivatives; assay type: cell-based
[3] = rat, in vivo, 100000 uM
[4] = rat, in vivo
[5] = rat, in vivo; remark: listed apart in the source
[6] = rat, in vivo; remark: listed apart in the source
[7] = Enhanced transmucosal delivery of co-administered agents in rat ileum or colon; assay type: in vivo
[8] = ASSAY II: proton transport across lipid membranes; assay type: biochemical
[9] = ASSAY I: leakage of carboxyfluorescein from vesicles; assay type: biochemical; conditions: for efficacy in permeabilizing phospholipid membranes: concentrations required for >50% leakage taken as measure
[10] = tested on: Crithidia fasciculate; conditions: antifungal agent alone; cited from earlier work
[11] = Plasma vancomycin after ileal co-administration in the rat
[12] = Plasma calcitonin after ileal co-administration in the rat; conditions: absence of 1
[13] = Plasma gentamicin after ileal co-administration in the rat; conditions: absence of 1

COC(=O)CC[C@@H](C)[C@H]1CC[C@H]2[C@@H]3[C@H](O)C[C@@H]4C[C@H](OC(=O)c5ccc(OC)cc5)CC[C@]4(C)[C@H]3C[C@H](O)[C@]12C [CDE, 3α-O-p-methoxybenzoyl-cis-5,10-cholic acid methyl ester, reference compound]
enhancing effect on erythromycin ([1]; lower concentrations (Table V)): does not function as an enhancer
enhancement of antifungal efficacy ([2]; with 24-TC (thiacholestanol)): lack of an enhancing effect; also recorded: not observed to act as an enhancer

COC(=O)CC[C@@H](C)[C@H]1CC[C@H]2[C@@H]3[C@H](O[C@H]4O[C@H](CO)[C@@H](O)[C@H](O)[C@H]4O)C[C@@H]4C[C@@H](N)CC[C@]4(C)[C@H]3C[C@H](O[C@H]3O[C@H](CO)[C@@H](O)[C@H](O)[C@H]3O)[C@]12C [Compound 1, 3β-amino-7α,12α-di(1'α-glucosyl)-5β-cholic acid methyl ester]
peak plasma levels of vancomycin [3]: 15 to 47 µg/mL
time to almost peak gentamicin levels ([4]; 10000 uM): ≤ 10 min
ileal bioavailability of gentamicin ([4]; 30000 uM): 19.8%
plasma concentrations of gentamicin versus concentration of 1 [5]: increasing plasma concentrations of the gentamicin
plasma calcitonin versus amount of 1 [6]: plasma calcitonin levels rise with increasing amounts of 1
bioavailability of calcitonin ([6]; po): significant amounts of calcitonin are made available with co-administration of 1
plasma levels of co-administered agents [7]: increase the plasma levels of proteinaceous compounds; also recorded: resembled pharmacokinetic profiles of agents administered intravenously

COC(=O)CC[C@@H](C)[C@H]1CC[C@H]2[C@@H]3[C@H](O[C@H]4O[C@H](CO)[C@@H](O)[C@H](O)[C@H]4O)C[C@@H]4C[C@H](OC(=O)c5ccc(OC)cc5)CC[C@]4(C)[C@H]3C[C@H](O[C@H]3O[C@H](CO)[C@@H](O)[C@H](O)[C@H]3O)[C@]12C [Entry 8, 3α-O-p-methoxybenzoyl-cis-5,10-bis-α,α-7,12-glucosyl cholic acid methyl ester]
% Decrease in Fluorescence ([8]; 0.00579 mM final concentration): 20.6%
% Decrease in Fluorescence ([8]; 0.0116 mM final concentration): 32.2%
EFFECT (clearing) ([1]; compound 0.001 mM, erythromycin 0.01 mM): +
EFFECT (clearing) ([1]; compound 0.01 mM, erythromycin 0.01 mM): +
EFFECT (clearing) ([1]; compound 0.1 mM, erythromycin 0.01 mM): +
EFFECT (clearing) ([1]; compound 0.1 mM, erythromycin 0.1 mM): +
EFFECT (enhancement of erythromycin) ([1]; erythromycin 0.5 mM): +++
EFFECT (enhancement of erythromycin) ([1]; erythromycin 1.0 mM): +++
enhancing effect on erythromycin ([1]; lower concentrations (Table V)): acts as an enhancer at very low concentrations
enhancing effect on erythromycin ([1]; test compound 20 mM): the best "enhancer" in this assay
enhancement of antifungal efficacy ([2]; with 10-TSA (thiastearic acid), listed as CME): enhancing effect; also recorded: enhances the efficacy of 10-TSA dramatically
enhancement of antifungal efficacy ([2]; with 24-TC (thiacholestanol), listed as CME): enhancing effect; also recorded: enhance the efficacy of 24-TC
% increase in Fluorescence ([9]; 0.117 mM final concentration): 89.1%
efficacy in permeabilizing phospholipid membranes [9]: the most effective glycosylated steroids tested
efficacy in permeabilizing phospholipid membranes ([9]; listed as CME): a good membrane permeabilizing agent

CCCCCCCCSCCCCCCCCC(=O)O [Entry 10-TSA, 10-thiastearic acid]
IC50 [10]: 10 µM

CN[C@H](CC(C)C)C(=O)N[C@H]1C(=O)N[C@@H](CC(N)=O)C(=O)N[C@H]2C(=O)N[C@H]3C(=O)N[C@H](C(=O)N[C@H](C(=O)O)c4cc(O)cc(O)c4-c4cc3ccc4O)[C@H](O)c3ccc(c(Cl)c3)Oc3cc2cc(c3O[C@@H]2O[C@H](CO)[C@@H](O)[C@H](O)[C@H]2O[C@H]2C[C@](C)(N)[C@H](O)[C@H](C)O2)Oc2ccc(cc2Cl)[C@H]1O [Vancomycin]
clearance from the circulation ([11]; ileum versus IV): cleared more slowly from the circulation when administered via the ileum than via IV
Cmax ([11]; rat, in vivo, 5 mg): 5000 to 10000 ng/mL

calcitonin
plasma calcitonin [12]: no appreciable amounts of calcitonin are found in the blood

gentamicin
ileal bioavailability of gentamicin [13]: 10.7%
plasma concentrations of gentamicin ([13]; ileal, 5 mg antibiotic): 1 to 7 µg/mL
